# Measured values: patent publication US10300051B2, “Cyclopropylamines as LSD1 inhibitors” (priority 2014, dated 2019)
# Biological target: LSD-1 enzyme (Homo sapiens (Human), UniProt O60341)
# Assay type: biochemical
# Conditions: 1 nM LSD-1 enzyme, 1 hour preincubation at 25° C., Biotin-labeled Histone H3 peptide substrate
# Experimental: Example A: LSD1 Histone Demethylase Biochemical Assay
# LANCE LSD1/KDM1A demethylase assay—10 μL of 1 nM LSD-1 enzyme (ENZO BML-SE544-0050) in the assay buffer (50 mM Tris, pH 7.5, 0.01% Tween-20, 25 mM NaCl, 5 mM DTT) were preincubated for 1 hour at 25° C. with 0.8 μL compound/DMSO dotted in black 384 well polystyrene plates. […] Reactions were stopped by addition of 10 μL 1× LANCE Detection Buffer (PerkinElmer CR97-100) supplemented with 1.5 nM Eu-anti-unmodified H3K4 Antibody (PerkinElmer TRF0404), and 225 nM LANCE Ultra Streptavidin (PerkinElmer TRF102) along with 0.9 mM Tranylcypromine-HCl (Millipore 616431). After stopping the reactions plates were incubated for 30 minutes and read on a PHERAstar FS plate reader (BMG Labtech).
row,Compound,IC50 [nM]
1,"O=C(O)CCN1CCC(CN[C@@H]2C[C@H]2c2ccccc2)(Cc2ccc(F)cc2)CC1 [Example 8, 3-[4-(4-fluorobenzyl)-4-({[(1R,2S)-2-phenylcyclopropyl]amino}methyl)piperidin-1-yl]propanoic Acid]",< 100
2,"N#Cc1ccc(CC2(CN[C@@H]3C[C@H]3c3ccccc3)CCN(CCC(=O)O)CC2)c(F)c1 [Example 42, 3-[4-(4-cyano-2-fluorobenzyl)-4-({[(1R,2S)-2-phenylcyclopropyl]amino}methyl)piperidin-1-yl]propanoic Acid]",< 100
3,"O=C(O)CCN1CCC(CN[C@@H]2C[C@H]2c2ccccc2)(COc2ccc(F)cc2)CC1 [Example 39, 3-[4-[(4-fluorophenoxy)methyl]-4-({[(1R,2S)-2-phenylcyclopropyl]amino}methyl)piperidin-1-yl]propanoic Acid]",< 100
4,"CN1CCC(CC#N)(CN[C@@H]2C[C@H]2c2ccccc2)CC1 (relative stereo) [Example 5, (1-Methyl-4-{[(trans-2-phenylcyclopropyl)amino]methyl}piperidin-4-yl)acetonitrile]",< 100
5,"Fc1ccc(CC2(CN[C@H]3C[C@@H]3c3ccccc3)CCNCC2)cc1 [Example 12, (1S,2R)—N-{[4-(4-fluorobenzyl)piperidin-4-yl]methyl}-2-phenylcyclopropanamine]",< 100
6,"C[C@@H](N)C(=O)N1CCC(CN[C@@H]2C[C@H]2c2ccccc2)(Cc2ccc(F)cc2)CC1 [Example 15, (1R,2S)—N-{[1-[(2R)-2-aminopropanoyl]-4-(4-fluorobenzyl)piperidin-4-yl]methyl}-2-phenylcyclopropanamine]",< 100
7,"COCC1(CN[C@@H]2C[C@H]2c2ccccc2)CCN(CC(C)(C)C(=O)O)CC1 [Example 48, 3-[4-(methoxymethyl)-4-({[(1R,2S)-2-phenylcyclopropyl]amino}methyl)piperidin-1-yl]-2,2-dimethylpropanoic Acid]",< 100
8,"O=C(O)c1cccc(CC2(CN[C@@H]3C[C@H]3c3ccccc3)CCN(Cc3cccnc3)CC2)c1 [Example 33, 3-{[4-({[(1R,2S)-2-phenylcyclopropyl]amino}methyl)-1-(pyridin-3-ylmethyl)piperidin-4-yl]methyl}benzoic Acid]",< 100
9,"COc1ccc(CC2(CN[C@@H]3C[C@H]3c3ccccc3)CCN(CCC(=O)O)CC2)cn1 [Example 50, 3-[4-[(6-methoxypyridin-3-yl)methyl]-4-({[(1R,2S)-2-phenylcyclopropyl]amino}methyl)piperidin-1-yl]propanoic Acid]",< 100
10,"CS(=O)(=O)N1CCC(CC#N)(CN[C@@H]2C[C@H]2c2ccccc2)CC1 (relative stereo) [Example 4, (1-(Methylsulfonyl)-4-{[(trans-2-phenylcyclopropyl)amino]methyl}piperidin-4-yl)acetonitrile]",< 100
11,"COCC1(CN[C@@H]2C[C@H]2c2ccccc2)CCN(CCC(=O)O)CC1 [Example 22, 3-[4-(methoxymethyl)-4-({[(1R,2S)-2-phenylcyclopropyl]amino}methyl)piperidin-1-yl]propanoic Acid]",< 100
12,"Cn1cc(-c2cccc(CC3(CN[C@@H]4C[C@H]4c4ccccc4)CCN(CCC(=O)O)CC3)c2)cn1 [Example 27, 3-[4-[3-(1-methyl-1H-pyrazol-4-yl)benzyl]-4-({[(1R,2S)-2-phenylcyclopropyl]amino}methyl)piperidin-1-yl]propanoic Acid]",< 100
13,"COC(=O)N1CCC(CC#N)(CN[C@@H]2C[C@H]2c2ccccc2)CC1 (relative stereo) [Example 2, Methyl 4-(cyanomethyl)-4-{[(trans-2-phenylcyclopropyl)amino]methyl}piperidine-1-carboxylate]",< 100
14,"N#CC1(c2ccc(CC3(CN[C@@H]4C[C@H]4c4ccccc4)CCN(CCC(=O)O)CC3)cc2)CC1 [Example 26, 3-[4-[4-(1-cyanocyclopropyl)benzyl]-4-({[(1R,2S)-2-phenylcyclopropyl]amino}methyl)piperidin-1-yl]propanoic Acid]",< 100
15,"O=C(O)CCN1CCC(CN[C@@H]2C[C@H]2c2ccccc2)(COCc2ccccc2)CC1 [Example 40, 3-[4-[(benzyloxy)methyl]-4-({[(1R,2S)-2-phenylcyclopropyl]amino}methyl)piperidin-1-yl]propanoic Acid]",< 100
16,"N#Cc1cccc(OCC2(CN[C@@H]3C[C@H]3c3ccccc3)CCN(CCC(=O)O)CC2)c1 [Example 47, 3-[4-[(3-cyanophenoxy)methyl]-4-({[(1R,2S)-2-phenylcyclopropyl]amino}methyl)piperidin-1-yl]propanoic Acid]",< 100
17,"C[C@H](N)C(=O)N1CCC(CN[C@@H]2C[C@H]2c2ccccc2)(Cc2ccc(F)cc2)CC1 [Example 14, (1R,2S)—N-{[1-[(2S)-2-aminopropanoyl]-4-(4-fluorobenzyl)piperidin-4-yl]methyl}-2-phenylcyclopropanamine]",< 100
18,"COCC1(CN[C@@H]2C[C@H]2c2ccccc2)CCN(C(=O)CN2CCOCC2)CC1 [Example 61, (1R,2S)—N-{[4-(methoxymethyl)-1-(morpholin-4-ylacetyl)piperidin-4-yl]methyl}-2-phenylcyclopropanamine]",< 100
19,"O=C(O)CCN1CCC(CN[C@@H]2C[C@H]2c2ccccc2)(Cc2cccc(F)c2)CC1 [Example 17, 3-[4-(3-fluorobenzyl)-4-({[(1R,2S)-2-phenylcyclopropyl]amino}methyl)piperidin-1-yl]propanoic Acid]",< 100
20,"O=C(O)CN1CCC(CN[C@@H]2C[C@H]2c2ccccc2)(Cc2ccc(F)cc2)CC1 [Example 13, [4-(4-fluorobenzyl)-4-({[(1R,2S)-2-phenylcyclopropyl]amino}methyl)piperidin-1-yl]acetic]",< 100
21,"COCC1(CN[C@@H]2C[C@H]2c2ccccc2)CCNCC1 [Example 21, (1R,2S)—N-{[4-(methoxymethyl)piperidin-4-yl]methyl}-2-phenylcyclopropanamine]",< 100
22,"O=C(O)CCN1CCC(CN[C@@H]2C[C@H]2c2ccccc2)(COc2ccccc2F)CC1 [Example 37, 3-[4-[(2-fluorophenoxy)methyl]-4-({[(1R,2S)-2-phenylcyclopropyl]amino}methyl)piperidin-1-yl]propanoic Acid]",< 100
23,"O=C(O)CCN1CCC(CN[C@@H]2C[C@H]2c2ccccc2)(Cc2ccccc2F)CC1 [Example 16, 3-[4-(2-fluorobenzyl)-4-({[(1R,2S)-2-phenylcyclopropyl]amino}methyl)piperidin-1-yl]propanoic Acid]",< 100
24,"O=C(O)CCN1CCC(CN[C@@H]2C[C@H]2c2ccccc2)(Cc2ccc(F)cn2)CC1 [Example 54, 3-[4-[(5-fluoropyridin-2-yl)methyl]-4-({[(1R,2S)-2-phenylcyclopropyl]amino}methyl)piperidin-1-yl]propanoic Acid]",< 100
25,"CC(=O)N1CCC(CC#N)(CN[C@@H]2C[C@H]2c2ccccc2)CC1 (relative stereo) [Example 1, (1-Acetyl-4-{[(trans-2-phenylcyclopropyl)amino]methyl}piperidin-4-yl)acetonitrile]",< 100
26,"O=C(O)CCN1CCC(CN[C@@H]2C[C@H]2c2ccccc2)(COc2ccc(F)cn2)CC1 [Example 45, 3-[4-{[(5-fluoropyridin-2-yl)oxy]methyl}-4-({[(1R,2S)-2-phenylcyclopropyl]amino}methyl)piperidin-1-yl]propanoic Acid]",< 100
27,"O=C(O)CCN1CCC(CN[C@@H]2C[C@H]2c2ccccc2)(Cc2ccc(F)c(F)c2)CC1 [Example 20, 3-[4-(3,4-difluorobenzyl)-4-({[(1R,2S)-2-phenylcyclopropyl]amino}methyl)piperidin-1-yl]propanoic Acid]",< 100
